Results as given in patent US8501442B2, “Determination of 5-ASA efficacy in CRC prevention and/or treatment by gene expression analysis” (Sofar SpA, priority 2009, dated 2013).

Experiments:
Type in all cases: cell-based
[1] = test system: μ-protocadherin/β-catenin protein complex in CaCo2 cells; experiment: Coimmunoprecipitation analysis of μ-protocadherin/β-catenin protein interaction in CaCo2 cells; details: lysates of CaCo2 cells, 20 mM 5-ASA for 96 h
Method: The hypothesis arising from our data would directly imply that μ-protocadherin, as other proteins belonging to the cadherin superfamily, is able to bind β-catenin on the plasmatic membrane. To verify this interaction we performed co-immunoprecipitation experiments in which β-catenin was immunoprecipitated from lysates of CaCo2 cells treated with 20 mM 5-ASA for 96 h using a specific antibody and the immunoprecipitate was subsequently analyzed by Western blot carried out with a distinct antibody able to detect μ-protocadherin. […] FIG. 4. Coimmunoprecipitation analysis of μ-protocadherin/β-catenin protein interaction. […] Western blot analysis of μ-protocadherin expression was performed in cell lysates of control untreated and 5-ASA treated CaCo2 cells (Input, left panel), immunoprecipitates obtained by the same cells using normal control IgG (middle panel) and immunoprecipitates obtained by the same cells using an anti-β-catenin antibody (right panel). IP, immunoprecipitation; WB, Western blot; Ab antibody.

[2] = test system: β-catenin signalling pathway genes in HT29 colon adenocarcinoma cell line; experiment: QRT-PCR analysis of β-catenin signalling pathway genes in HT29 cells; details: 20 mM 5-ASA, 96 h
Method: These findings were also confirmed in another colon adenocarcinoma cell line, named HT29, under the same experimental conditions.
FIG. 5. Biological effects determined by treatment with 5-ASA on the HT29 colon adenocarcinoma cell line. The mRNA expression variations of gene belonging to the β-catenin signalling pathway were analyzed in HT29 cells using the QRT-PCR reaction under the experimental conditions described in Results and in FIG. 1.
Total RNA was extracted from cell suspensions and frozen tissues by means of the Qiagen total RNA purification kit as recommended by the manufacturer (Qiagen, Valencia, Calif.). RNA integrity and concentration were verified using the Bio-Analyzer technique (Applied Biosystem, Foster City, Calif.). 100 ng of total RNA were reverse transcribed using the High Capacity cDNA Archive Kit (Applied Biosystems) according to the manufacturer's instructions. QRT-PCR was performed with an ABI PRISM 7900 sequence detection system (Applied Biosystems) to quantify the relative levels of mRNA in the samples. […] Evaluation of QRT-PCR signals was performed using the ΔΔCt relative quantitation method. […] The values obtained were expressed in terms of relative quantity (RQ) of mRNA level variation.

[3] = test system: onco-suppressor genes in CaCo2 cells; experiment: Affimetrix microarray analysis of transcriptome changes in CaCo2 cells; details: 20 mM 5-ASA for 96 h
Method: (§1) To investigate the molecular mechanisms underlying this effect we performed a microarray analysis, using the Affimetrix methodology, in order to assess the transcriptome changes determined on CaCo2 cells by treatment with 20 mM 5-ASA for 96 h. […] This gene codes for a member of the cadherin superfamily and, based on previous reports by other authors, appeared as a putative inhibitor of the β-catenin signalling pathway, i.e. a cell proliferation pathway mediated by the activity of the β-catenin transcription factor^16,17. The relevance of this finding resides in the observation that the β-catenin signalling pathway is constitutively activated in CRC. […] Up-regulation of mRNA expression resulted to be 12-fold for μ-protocadherin, 16-fold for p21^waf-1, 4 to 6-fold for KLF4 and CEBPα and 2 to 3-fold Axin 1 and ICAT. […] The up-regulation of these genes appeared also more pronounced at the end of stimulation (96 h). mRNA expression of E-cadherin and β-catenin appeared, conversely, unaffected (FIG. 1).

CaCo2 cells = experiment: Proliferation of CaCo2 cells under 5-ASA treatment (preliminary experiments)
[4] = test system: μ-protocadherin protein in CaCo2 cells; experiment: Time course Western blot of μ-protocadherin protein expression in CaCo2 cells; details: 20 mM 5-ASA for up to 96 h, 24 h intervals
Method: To confirm μ-protocadherin induction we performed a time course Western blot analysis on CaCo2 cells undergoing exposure to 20 mM 5-ASA for up to 96 h. […] FIG. 2. Results of a time course Western blot analysis evaluating the expression of μ-protocadherin protein in CaCo2 cells treated with 5-ASA. This analysis was performed on cytoplasmic extracts of studied cells, at 24 h intervals following treatment with 5-ASA. Analyzed cell samples are indicated on the top. Normalization of the protein amount loaded in each lane was achieved using a pan-actin antibody able to detect either cytoplasmic or nuclear actin.

[5] = test system: β-catenin protein in CaCo2 cells; experiment: Immunofluorescence assay of sub-cellular distribution of β-catenin in CaCo2 cells; details: 20 mM 5-ASA, after 96 h of culture
Method: Due to the particular regulation mechanisms controlling the β-catenin signalling pathway, levels of β-catenin protein observed in the different subcellular compartments represent reliable indicators of the extent of its activation. Based on this premise we performed an immunofluorescence assay to assess the sub-cellular distribution of β-catenin protein in CaCo2 cells undergoing treatment with 20 mM 5-ASA. […] FIG. 3. Immunofluorescence analysis of β-catenin protein on CaCo2 cells exposed to 5-ASA treatment. Cells were stimulated with 5-ASA as explained in Results and subsequently stained with an anti-β-catenin primary antibody and a FITC conjugated secondary antibody (green fluorescence). Untreated control cells (CONT.) were also analyzed. Nuclei were counterstained with DAPI (blue fluorescence). Merge images, of the two analyzed fluorescence signals, are also shown.

[6] = test system: β-catenin signalling pathway genes in CaCo2 colon adenocarcinoma cells; experiment: QRT-PCR analysis of genes regulating the β-catenin signalling pathway in CaCo2 cells; details: 20 mM 5-ASA
Method: as §1
FIG. 1. QRT-PCR analysis of genes belonging to the β-catenin signalling pathway in CaCo2 cells treated with 5-ASA. Cells under the experimental conditions described in Results were analyzed by QRT-PCR to estimate the mRNA expression of genes belonging to the β-catenin signalling pathway, all indicated on y-axis. The effect determined by 5-ASA treatment on the mRNA expression of KLF4 and CEBPα onco-suppressor genes is also shown.
Total RNA was extracted from cell suspensions and frozen tissues by means of the Qiagen total RNA purification kit as recommended by the manufacturer (Qiagen, Valencia, Calif.). RNA integrity and concentration were verified using the Bio-Analyzer technique (Applied Biosystem, Foster City, Calif.). 100 ng of total RNA were reverse transcribed using the High Capacity cDNA Archive Kit (Applied Biosystems) according to the manufacturer's instructions. QRT-PCR was performed with an ABI PRISM 7900 sequence detection system (Applied Biosystems) to quantify the relative levels of mRNA in the samples. Primers and probes for mRNA amplification of μ-protocadherin, E-cadherin, β-catenin, Axin-1, Inhibitor of β-Catenin and TCF-4 (ICAT), p21^waf-1, KLF4, CEBPα, and glyceraldehyde-3-phosphate dehydrogenase (GAPDH) were designed by Applied Biosystems. Each cDNA sample was run in triplicate in 50 μl reaction volume using Taqman Universal PCR Master Mix (Applied Biosystems). Thermal cycling was started with an initial denaturation at 50° C. for 2 min and 95° C. for 10 min, followed by 40 thermal cycles of 15 sec at 95° C. and 1 min at 60° C. Evaluation of QRT-PCR signals was performed using the ΔΔCt relative quantitation method. […] The values obtained were expressed in terms of relative quantity (RQ) of mRNA level variation.

[7] = 48 and 96 h (more pronounced at 96 h)

## Nc1ccc(O)c(C(=O)O)c1 [5-ASA, 5 aminosalicylic acid]
[1]
  μ-protocadherin bands (93 and 110 kDa) in β-catenin immunoprecipitate: interacting with β-catenin
[2]
  induction of p21^waf-1 mRNA expression: 5 fold
  induction of μ-protocadherin mRNA expression: 3 fold
[3]
  expression of onco-suppressor genes (μ-protocadherin, KLF4, CEBPα) by microarray: up-regulated expression
CaCo2 cells
  proliferation activity of CaCo2 cells: inhibits the proliferation activity
[4]
  μ-protocadherin protein expression in cytoplasmic extract (Western blot): gradually but remarkably induced
[5]
  sub-cellular localization of β-catenin signal: almost exclusively localized in the plasmatic membrane
[6]; 48 and 96 h
  mRNA expression of E-cadherin: unaffected
  mRNA expression of β-catenin: unaffected
[6]; [7]
  up-regulation of p21^waf-1 mRNA expression: 16 fold
  up-regulation of μ-protocadherin mRNA expression: 12 fold
